From patent US20240122848A1, “APPETITE SUPPRESSANT” (priority 2017, published 2024)
Counter-ions that a name gives are not always drawn.

What was measured:
[1] = cited from earlier work; for Average weight loss/one year: vs. 3% placebo
[2] = Dissolution / solubility observations of ingredients

Compound | patients with 5% weight loss/12 weeks [1] | patients with 10% weight loss/12 weeks [1] | Average weight loss/one year [1] | further results
CC1(C)O[C@@H]2[C@@H](CO[C@@]3(COS(N)(=O)=O)OC(C)(C)O[C@@H]23)O1 [TOPAMAX, Topiramate] |  |  |  | efficacy (vs. placebo) ([1]; in vivo): Minimal, if any efficacy
Glycerol ester of hydrogenated rosin [GEHR] |  |  |  | solubility in aqueous solutions [2]: poorly soluble
CCN(CC)C(C)C(=O)c1ccccc1 (stereo not shown) [TENUATE, Diethylpropion] | 80 % patients | 50 % patients | 10% | 
C[C@H]1[C@H](c2ccccc2)OCCN1C [BONTRIL, Phendimetrazine] | 80 % patients | 50 % patients | 10% | 
C[C@H]1[C@H](c2ccccc2)OCCN1C.O=C(O)C(O)C(O)C(=O)O [ADIPOST] | 80 % patients | 50 % patients | 10% | 
CN[C@H]1CC[C@@H](c2ccc(Cl)c(Cl)c2)c2ccccc21 [ZOLOFT, Sertraline] |  |  |  | evidence of weight loss ([1]; in vivo): No evidence of weight loss
C[C@H]1CNCCc2ccc(Cl)cc21 [BELVIQ, Lorcaserin] |  |  |  | weight loss/year vs. placebo ([1]; per year): 3-5%
CN1CCCC(n2nc(Cc3ccc(Cl)cc3)c3ccccc3c2=O)CC1 (stereo not shown) [Azelastine hydrochloride, Azelastine Hydrochloride] |  |  |  | time to dissolve in purified water with stirring ([2]; added as second ingredient after Purified Water): approximately 5 minutes
CC(C)(N)Cc1ccccc1 [ADIPEX, Phentermine] | 80 % patients | 50 % patients | 10% | 
CCCCCCCCCCC[C@@H](C[C@@H]1OC(=O)[C@H]1CCCCCC)OC(=O)[C@H](CC(C)C)NC=O [XENICAL, Orlistat] |  |  |  | weight loss (vs. placebo)/6 months ([1]; 6 months): 5%
CNCCC(Oc1ccc(C(F)(F)F)cc1)c1ccccc1 (stereo not shown) [PROZAC, Fluoxetine] |  |  |  | evidence of weight loss ([1]; in vivo): No evidence of weight loss
C[C@@H](Cc1ccccc1)N(C)Cc1ccccc1 [DIDREX, Benzphetamine] | 80 % patients | 50 % patients | 10% | 
